Assay: Solubility of precursor compounds in methanol
Type: physicochemical
Method: Ca(dbm)2.4H2O (1 g) was weighed into a 250 mL conical flask. Methanol (50 mL) was added, the flask was stoppered and the solution was swirled for […]2 min. The solution was incubated in a water bath at varying temperatures (20°, 30° or 40° C.) for a period of 4 or 17 h. At the end of the incubation period, two 20 mL aliquots of the solution were filtered into separate, pre-weighed round bottomed flasks. […] Experiments for all conditions were carried out in duplicate. The results of the solubility experiments are compiled in Table 2.

In the case of `O.O.O.O.O=C(C=C([O-])c1ccccc1)c1ccccc1.O=C(C=C([O-])c1ccccc1)c1ccccc1.[Ca+2]` [Ca(dbm)2•4H2O, Ca(dbm)2.4H2O], the solubility in methanol (incubation 20° C., 4 h) is reported as 1.78 ± 0.1 g/100 mL, the solubility in methanol (incubation 20° C., 17 h) is reported as 1.91 ± 0.5 g/100 mL and the solubility in methanol (incubation 30° C., 4 h) is reported as 1.86 ± 0.1 g/100 mL. It also gave a solubility in methanol (incubation 30° C., 17 h) of 1.88 ± 0.5 g/100 mL, a solubility in methanol (incubation 40° C., 4 h) of 1.98 ± 0.2 g/100 mL and a solubility in methanol (incubation 40° C., 17 h) of 1.92 ± 0.4 g/100 mL. The “solubility in methanol relative to the acac and benzoylacetone calcium complexes” value (qualitative comparison) was “higher solubility”.

Reference: patent US20100094430A1, “Device” (priority 2006, published 2010)
